In ChEMBL document CHEMBL4732193, “Design, synthesis, and anti-tumor activities of novel Brevinin-1BYa peptidomimetics” (Bioorg Med Chem Lett, 2021):
Starred links: 1 amine or outer side, 2 acyl side, 3 side chain; linkers in the order of their positions; H or OH if unused. Positions of bridges follow the written chain, without caps; N, C: chain ends. Non-standard residues stand in square brackets, D forms with d. Residues, ends and D or L forms follow the SMILES beside them. Triazole bridges read from a SMILES are 1,4-linked. *: point of attachment. βGlcNAc = CC(=O)N[C@@H]1[C@@H](O)[C@H](O)[C@@H](CO)O[C@H]1*; Abu(4-yl) = O=C([C@H](CC[*:3])N[*:1])[*:2]; Dap(N3) = [N-]=[N+]=NC[C@H](N)C(=O)O; Pra = C#CC[C@H](N)C(=O)O; Dap = NC[C@H](N)C(=O)O

Key:
[1] = Stability of the compound in aqueous DTT solution assessed as degradation half life measured for 48 hrs; format: physicochemical
[2] = Stability of the compound in aqueous DTT solution measured after 48 hrs; format: physicochemical; conditions: buffer
alpha chymotrypsin = experiment: Stability of the compound assessed as alpha chymotrypsin (unknown origin)-mediated proteolysis by measuring degradation half life measured for 24 hrs; format: ADME, Homo sapiens
[3] = Hemolytic activity in rabbit erythrocytes assessed as hemoglobin release; format: ADME, cell-based, Oryctolagus cuniculus, Erythrocyte
LNCaP C4-2B [4] = experiment: Anticancer activity against human LNCaP C4-2B cells assessed as cell growth inhibition by CCK8 assay; format: functional, cell-based
A549 = experiment: Anticancer activity against human A549 cells assessed as cell growth inhibition by CCK8 assay; format: functional, cell-based
Huh-7 [5] = experiment: Anticancer activity against human Huh-7 cells assessed as cell growth inhibition by CCK8 assay; format: functional, cell-based
[6] = Ratio of test compound t1/2 to Brevinin-1BYa t1/2 for alpha chymotrypsin (unknown origin)-mediated proteolysis measured for 24 hrs; format: ADME; conditions: human
[7] = Helicity of the compound in TFE aqueous solution by CD spectroscopy; format: physicochemical; conditions: buffer
[8] = Helicity of the compound in TFE aqueous solution by CD spectroscopy relative to Brevinin-1BYa; format: physicochemical; conditions: buffer
LNCaP C4-2B [9] = experiment: Potency index, ratio of Brevinin-1BYa IC50 to test compound IC50 for human LNCaP C4-2B cells by CCK8 assay; format: functional
Huh-7 [10] = experiment: Potency index, ratio of Brevinin-1BYa IC50 to test compound IC50 for human Huh-7 cells by CCK8 assay; format: functional

half-life [1] [h] | Stabilty [2] | half-life (alpha chymotrypsin) [h] | IC50 (LNCaP C4-2B [4]) [µM] | IC50 (A549) [µM] | IC50 (Huh-7 [5]) [µM] | Ratio [6] | Activity [7] [%] | fold change (FC) [8] | Structure (SMILES) | HC50 [3] [µM] | Ratio IC50 (LNCaP C4-2B [9]) | Ratio IC50 (Huh-7 [10])
3.32 | Unstable | 4.33 | 20.5 | 20.9 | 23.4 | 1.67 |  |  | CC[C@H](C)[C@H](NC(=O)[C@H](CC(C)C)NC(=O)[C@H](C)NC(=O)[C@H](CO)NC(=O)[C@H](CC(C)C)NC(=O)[C@H](C)NC(=O)[C@H](C)NC(=O)[C@H](CCCCN)NC(=O)[C@H](Cc1ccccc1)NC(=O)CNC(=O)[C@@H]1CCCN1C(=O)[C@H](CCCCN)NC(=O)[C@H](CC(C)C)NC(=O)[C@H](Cc1ccccc1)NC(=O)[C@@H]1CSSC[C@H](N)C(=O)N[C@@H](CCCCN)C(=O)N[C@@H](CCCCN)C(=O)N[C@@H]([C@@H](C)O[C@@H]2O[C@H](CO)[C@@H](O)[C@H](O)[C@H]2NC(C)=O)C(=O)N[C@@H](C(C)C)C(=O)N[C@@H](CC(C)C)C(=O)N1)C(=O)N1CCC[C@H]1C(=O)N[C@@H](CC(C)C)C(=O)N[C@@H](Cc1ccccc1)C(=O)O (H-CKKT(βGlcNAc)VLCFLKPGFKAALSALIPLF-OH; disulfide 1-7) | > 100 |  | 
3.31 | Unstable | 4.32 | 18.7 | 32.6 | 39.6 | 1.66 |  |  | CC[C@H](C)[C@H](NC(=O)[C@H](CC(C)C)NC(=O)[C@H](C)NC(=O)[C@H](CO[C@@H]1O[C@H](CO)[C@@H](O)[C@H](O)[C@H]1NC(C)=O)NC(=O)[C@H](CC(C)C)NC(=O)[C@H](C)NC(=O)[C@H](C)NC(=O)[C@H](CCCCN)NC(=O)[C@H](Cc1ccccc1)NC(=O)CNC(=O)[C@@H]1CCCN1C(=O)[C@H](CCCCN)NC(=O)[C@H](CC(C)C)NC(=O)[C@H](Cc1ccccc1)NC(=O)[C@@H]1CSSC[C@H](N)C(=O)N[C@@H](CCCCN)C(=O)N[C@@H](CCCCN)C(=O)N[C@@H]([C@@H](C)O)C(=O)N[C@@H](C(C)C)C(=O)N[C@@H](CC(C)C)C(=O)N1)C(=O)N1CCC[C@H]1C(=O)N[C@@H](CC(C)C)C(=O)N[C@@H](Cc1ccccc1)C(=O)O (H-CKKTVLCFLKPGFKAALS(βGlcNAc)ALIPLF-OH; disulfide 1-7) | > 100 |  | 
3.35 | Unstable | 1.62 | 14 | 9.24 | 14.9 |  | 22.57 |  | CC[C@H](C)[C@H](NC(=O)[C@H](CC(C)C)NC(=O)[C@H](C)NC(=O)[C@H](CO)NC(=O)[C@H](CC(C)C)NC(=O)[C@H](C)NC(=O)[C@H](C)NC(=O)[C@H](CCCCN)NC(=O)[C@H](Cc1ccccc1)NC(=O)CNC(=O)[C@@H]1CCCN1C(=O)[C@H](CCCCN)NC(=O)[C@H](CC(C)C)NC(=O)[C@H](Cc1ccccc1)NC(=O)[C@@H]1CSSC[C@H](N)C(=O)N[C@@H](CCCCN)C(=O)N[C@@H](CCCCN)C(=O)N[C@@H]([C@@H](C)O)C(=O)N[C@@H](C(C)C)C(=O)N[C@@H](CC(C)C)C(=O)N1)C(=O)N1CCC[C@H]1C(=O)N[C@@H](CC(C)C)C(=O)N[C@@H](Cc1ccccc1)C(=O)O (H-CKKTVLCFLKPGFKAALSALIPLF-OH; disulfide 1-7) | 94.4 |  | 
> 12 | Stable | 2.51 | 9.23 | 11.2 | 10.8 |  | 83.65 | 2.7 | CC[C@H](C)[C@H](NC(=O)[C@H](CC(C)C)NC(=O)[C@H](C)NC(=O)[C@H](CO)NC(=O)[C@H](CC(C)C)NC(=O)[C@H](C)NC(=O)[C@H](C)NC(=O)[C@H](CCCCN)NC(=O)[C@H](Cc1ccccc1)NC(=O)CNC(=O)[C@@H]1CCCN1C(=O)[C@H](CCCCN)NC(=O)[C@H](CC(C)C)NC(=O)[C@H](Cc1ccccc1)NC(=O)[C@@H]1CCSC[C@H](N)C(=O)N[C@@H](CCCCN)C(=O)N[C@@H](CCCCN)C(=O)N[C@@H]([C@@H](C)O)C(=O)N[C@@H](C(C)C)C(=O)N[C@@H](CC(C)C)C(=O)N1)C(=O)N1CCC[C@H]1C(=O)N[C@@H](CC(C)C)C(=O)N[C@@H](Cc1ccccc1)C(=O)O (H-CKKTVL[Abu(4-yl)]FLKPGFKAALSALIPLF-OH; thioether 1-7) | 70.4 | 1.5 | 1.38
> 12 | Stable | 1.81 | 16.8 | 17.1 | 16.6 |  | 26.34 |  | CC[C@H](C)[C@H](NC(=O)[C@H](CC(C)C)NC(=O)[C@H](C)NC(=O)[C@H](CO)NC(=O)[C@H](CC(C)C)NC(=O)[C@H](C)NC(=O)[C@H](C)NC(=O)[C@H](CCCCN)NC(=O)[C@H](Cc1ccccc1)NC(=O)CNC(=O)[C@@H]1CCCN1C(=O)[C@H](CCCCN)NC(=O)[C@H](CC(C)C)NC(=O)[C@H](Cc1ccccc1)NC(=O)[C@@H]1CNC(=O)C[C@H](N)C(=O)N[C@@H](CCCCN)C(=O)N[C@@H](CCCCN)C(=O)N[C@@H]([C@@H](C)O)C(=O)N[C@@H](C(C)C)C(=O)N[C@@H](CC(C)C)C(=O)N1)C(=O)N1CCC[C@H]1C(=O)N[C@@H](CC(C)C)C(=O)N[C@@H](Cc1ccccc1)C(=O)O (H-DKKTVL[Dap]FLKPGFKAALSALIPLF-OH; lactam 1-7) | > 100 |  | 
> 12 | Stable | 2.93 | 12.6 | 21.7 | 11.3 |  |  |  | CC[C@H](C)[C@H](NC(=O)[C@H](CC(C)C)NC(=O)[C@H](C)NC(=O)[C@H](CO)NC(=O)[C@H](CC(C)C)NC(=O)[C@H](C)NC(=O)[C@H](C)NC(=O)[C@H](CCCCN)NC(=O)[C@H](Cc1ccccc1)NC(=O)CNC(=O)[C@@H]1CCCN1C(=O)[C@H](CCCCN)NC(=O)[C@H](CC(C)C)NC(=O)[C@H](Cc1ccccc1)NC(=O)[C@@H]1Cn2cc(nn2)C[C@H](N)C(=O)N[C@@H](CCCCN)C(=O)N[C@@H](CCCCN)C(=O)N[C@@H]([C@@H](C)O)C(=O)N[C@@H](C(C)C)C(=O)N[C@@H](CC(C)C)C(=O)N1)C(=O)N1CCC[C@H]1C(=O)N[C@@H](CC(C)C)C(=O)N[C@@H](Cc1ccccc1)C(=O)O (H-[Pra]KKTVL[Dap(N3)]FLKPGFKAALSALIPLF-OH; triazole 1-7) | 70.4 |  | 
